Source: PubChem BioAssay (NCI)
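Growth conditions: 96-well plates. Treatment: test compound, 48 hours, 5 concentrations. Analysis: linear interpolation between bracketing concentrations; unreached endpoints set to highest concentration. Definition used: TGI = concentration required for complete inhibition of growth.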

Assays:
Test in all cases: growth of human tumour cells (NCI), 48 h
U251 CNS = tested on: U251 CNS
786-0 renal = tested on: 786-0 renal
CAKI-1 renal = tested on: CAKI-1 renal
UACC-62 melanoma = tested on: UACC-62 melanoma
CCRF-CEM leukemia = tested on: CCRF-CEM leukemia
ACHN renal = tested on: ACHN renal
A498 renal = tested on: A498 renal
NCI/ADR-RES ovarian = tested on: NCI/ADR-RES ovarian
MDA-N = tested on: MDA-N
NCI-H226 lung = tested on: NCI-H226 lung
HL-60(TB) leukemia = tested on: HL-60(TB) leukemia
K-562 leukemia = tested on: K-562 leukemia
MDA-MB-231 breast = tested on: MDA-MB-231 breast
M14 melanoma = tested on: M14 melanoma
UACC-257 melanoma = tested on: UACC-257 melanoma
HCT-116 colon = tested on: HCT-116 colon
OVCAR-8 ovarian = tested on: OVCAR-8 ovarian
SN12C renal = tested on: SN12C renal
SW-620 colon = tested on: SW-620 colon
MALME-3M melanoma = tested on: MALME-3M melanoma
MCF7 breast = tested on: MCF7 breast
MDA-MB-435 = tested on: MDA-MB-435
RXF 393 renal = tested on: RXF 393 renal
T-47D breast = tested on: T-47D breast
MOLT-4 leukemia = tested on: MOLT-4 leukemia
PC-3 prostate = tested on: PC-3 prostate
HS 578T breast = tested on: HS 578T breast
UO-31 renal = tested on: UO-31 renal
RPMI-8226 leukemia = tested on: RPMI-8226 leukemia
IGROV1 ovarian = tested on: IGROV1 ovarian
NCI-H460 lung = tested on: NCI-H460 lung
A549 NSCLC = tested on: A549 NSCLC
OVCAR-3 ovarian = tested on: OVCAR-3 ovarian
HOP-62 NSCLC = tested on: HOP-62 NSCLC
SF-295 CNS = tested on: SF-295 CNS
SK-MEL-2 melanoma = tested on: SK-MEL-2 melanoma
SK-MEL-5 melanoma = tested on: SK-MEL-5 melanoma
LOX IMVI melanoma = tested on: LOX IMVI melanoma
SR leukemia = tested on: SR leukemia
SF-268 CNS = tested on: SF-268 CNS
COLO 205 colon = tested on: COLO 205 colon
HOP-92 NSCLC = tested on: HOP-92 NSCLC
TK-10 renal = tested on: TK-10 renal
SNB-75 CNS = tested on: SNB-75 CNS
KM12 colon = tested on: KM12 colon
HT29 colon = tested on: HT29 colon
EKVX NSCLC = tested on: EKVX NSCLC
DU-145 prostate = tested on: DU-145 prostate
SK-OV-3 ovarian = tested on: SK-OV-3 ovarian
SK-MEL-28 melanoma = tested on: SK-MEL-28 melanoma
SNB-19 CNS = tested on: SNB-19 CNS
HCT-15 colon = tested on: HCT-15 colon
SF-539 CNS = tested on: SF-539 CNS
NCI-H23 lung = tested on: NCI-H23 lung
BT-549 breast = tested on: BT-549 breast
NCI-H522 lung = tested on: NCI-H522 lung
HCC-2998 colon = tested on: HCC-2998 colon
OVCAR-5 ovarian = tested on: OVCAR-5 ovarian
OVCAR-4 ovarian = tested on: OVCAR-4 ovarian

SMILES: COC1CC(C)(N)C(O)C(C)O1 (stereo not drawn)
- TGI (U251 CNS): > 100 µM
- TGI (786-0 renal): > 100 µM
- TGI (CAKI-1 renal): > 100 µM
- TGI (UACC-62 melanoma): > 100 µM
- TGI (CCRF-CEM leukemia): > 100 µM
- TGI (ACHN renal): > 100 µM
- TGI (A498 renal): > 100 µM
- TGI (NCI/ADR-RES ovarian): > 100 µM
- TGI (MDA-N): > 100 µM
- TGI (NCI-H226 lung): > 100 µM
- TGI (HL-60(TB) leukemia): > 100 µM
- TGI (K-562 leukemia): > 100 µM
- TGI (MDA-MB-231 breast): > 100 µM
- TGI (M14 melanoma): > 100 µM
- TGI (UACC-257 melanoma): > 100 µM
- TGI (HCT-116 colon): > 100 µM
- TGI (OVCAR-8 ovarian): > 100 µM
- TGI (SN12C renal): > 100 µM
- TGI (SW-620 colon): > 100 µM
- TGI (MALME-3M melanoma): > 100 µM
- TGI (MCF7 breast): > 100 µM
- TGI (MDA-MB-435): > 100 µM
- TGI (RXF 393 renal): > 100 µM
- TGI (T-47D breast): > 100 µM
- TGI (MOLT-4 leukemia): > 100 µM
- TGI (PC-3 prostate): > 100 µM
- TGI (HS 578T breast): > 100 µM
- TGI (UO-31 renal): > 100 µM
- TGI (RPMI-8226 leukemia): > 100 µM
- TGI (IGROV1 ovarian): > 100 µM
- TGI (NCI-H460 lung): > 100 µM
- TGI (A549 NSCLC): > 100 µM
- TGI (OVCAR-3 ovarian): > 100 µM
- TGI (HOP-62 NSCLC): > 100 µM
- TGI (SF-295 CNS): > 100 µM
- TGI (SK-MEL-2 melanoma): > 100 µM
- TGI (SK-MEL-5 melanoma): > 100 µM
- TGI (LOX IMVI melanoma): > 100 µM
- TGI (SR leukemia): > 100 µM
- TGI (SF-268 CNS): > 100 µM
- TGI (COLO 205 colon): > 100 µM
- TGI (HOP-92 NSCLC): > 100 µM
- TGI (TK-10 renal): > 100 µM
- TGI (SNB-75 CNS): > 100 µM
- TGI (KM12 colon): > 100 µM
- TGI (HT29 colon): > 100 µM
- TGI (EKVX NSCLC): > 100 µM
- TGI (DU-145 prostate): > 100 µM
- TGI (SK-OV-3 ovarian): > 100 µM
- TGI (SK-MEL-28 melanoma): > 100 µM
- TGI (SNB-19 CNS): > 100 µM
- TGI (HCT-15 colon): > 100 µM
- TGI (SF-539 CNS): > 100 µM
- TGI (NCI-H23 lung): > 100 µM
- TGI (BT-549 breast): > 100 µM
- TGI (NCI-H522 lung): > 100 µM
- TGI (HCC-2998 colon): > 100 µM

SMILES: COc1ccc(OC)c(N2C(=O)/C(=C\c3ccccc3)SC2c2cc(OC)c(OC)c(OC)c2)c1 (stereo not drawn)
- TGI (U251 CNS): > 100 µM
- TGI (786-0 renal): > 100 µM
- TGI (CAKI-1 renal): > 100 µM
- TGI (CCRF-CEM leukemia): > 100 µM
- TGI (ACHN renal): 6.85 µM
- TGI (A498 renal): > 100 µM
- TGI (NCI/ADR-RES ovarian): > 100 µM
- TGI (OVCAR-5 ovarian): > 100 µM
- TGI (MDA-N): 52.1 µM
- TGI (NCI-H226 lung): > 100 µM
- TGI (HL-60(TB) leukemia): > 100 µM
- TGI (K-562 leukemia): > 100 µM
- TGI (MDA-MB-231 breast): > 100 µM
- TGI (M14 melanoma): > 100 µM
- TGI (UACC-257 melanoma): > 100 µM
- TGI (HCT-116 colon): > 100 µM
- TGI (OVCAR-8 ovarian): > 100 µM
- TGI (SN12C renal): > 100 µM
- TGI (SW-620 colon): > 100 µM
- TGI (MALME-3M melanoma): > 100 µM
- TGI (MCF7 breast): > 42.7 µM
- TGI (MDA-MB-435): > 75 µM
- TGI (RXF 393 renal): > 31.4 µM
- TGI (T-47D breast): > 100 µM
- TGI (MOLT-4 leukemia): > 100 µM
- TGI (PC-3 prostate): > 100 µM
- TGI (HS 578T breast): > 100 µM
- TGI (UO-31 renal): > 100 µM
- TGI (RPMI-8226 leukemia): > 100 µM
- TGI (OVCAR-4 ovarian): > 100 µM
- TGI (IGROV1 ovarian): > 100 µM
- TGI (A549 NSCLC): > 100 µM
- TGI (OVCAR-3 ovarian): > 100 µM
- TGI (HOP-62 NSCLC): > 100 µM
- TGI (SF-295 CNS): > 100 µM
- TGI (SK-MEL-2 melanoma): > 100 µM
- TGI (SK-MEL-5 melanoma): > 100 µM
- TGI (LOX IMVI melanoma): > 100 µM
- TGI (SR leukemia): > 100 µM
- TGI (SF-268 CNS): > 100 µM
- TGI (COLO 205 colon): > 100 µM
- TGI (HOP-92 NSCLC): > 100 µM
- TGI (TK-10 renal): > 100 µM
- TGI (SNB-75 CNS): > 100 µM
- TGI (KM12 colon): > 100 µM
- TGI (HT29 colon): > 100 µM
- TGI (EKVX NSCLC): > 100 µM
- TGI (DU-145 prostate): > 100 µM
- TGI (SK-OV-3 ovarian): > 100 µM
- TGI (SK-MEL-28 melanoma): > 100 µM
- TGI (SNB-19 CNS): > 100 µM
- TGI (HCT-15 colon): > 100 µM
- TGI (NCI-H23 lung): > 100 µM
- TGI (BT-549 breast): > 100 µM
- TGI (NCI-H522 lung): 74.9 µM
- TGI (HCC-2998 colon): > 100 µM
